# Measured values taken from patent US8637561B2, “Linked diimidazole derivatives” (Enanta Pharmaceuticals, Inc., priority 2009, dated 2014).
# Test system: HCV 1b genotype replicon
# Assay: HCV replicon assay (qRT-PCR or luciferase), genotype 1b
# Format: cell-based
# Conditions: Hepatitis C virus, read-out: Genotype-1b replicon EC50 Range
# Text: HCV replicon cell lines (kindly provided by R. Bartenschlager) isolated from colonies as described by Lohman et al. (Lohman et al. (1999) Science 285: 110-113, expressly incorporated by reference in its entirety) and used for all experiments. The HCV replicon has the nucleic acid sequence set forth in EMBL Accession No.: AJ242651, the coding sequence of which is from nucleotides 1801 to 8406.
# The coding sequence of the published HCV replicon was synthesized and subsequently assembled in a modified plasmid pBR322 (Promega, Madison, Wis.) using standard molecular biology techniques. One replicon cell line (“SGR 11-7”) stably expresses HCV replicon RNA which consists of (i) the HCV 5′UTR fused to the first 12 amino acids of the capsid protein, (ii) the neomycin phosphotransferase gene (neo), (iii) the IRES from encephalomyocarditis virus (EMCV), and (iv) HCV NS2 to NS5B genes and the HCV 3′UTR. […]
# EC50 values of single agent compounds and combinations were determined by HCV RNA detection using quantitative RT-PCR, according to the manufacturer's instructions, with a TaqMan® One-Step RT-PCR Master Mix Reagents Kit (Cat# AB 4309169, Applied Biosystems) on an ABI Model 7500 thermocycler. The TaqMan primers used for detecting and quantifying HCV RNA were obtained from Integrated DNA Technologies. HCV RNA was normalized to GAPDH RNA levels in drug-treated cells, which is detected and quantified using the Human GAPDH Endogenous Control Mix (Applied Biosystems, AB 4310884E). […] Chemical agent cytotoxicity is evaluated using an MTS assay according to the manufacturer's directions (Promega). […]
row,Structure (SMILES),EC50 [nM]
1,COC(=O)N[C@@H](C(=O)N1CCC[C@H]1c1nc(C2=CCC(c3ccc(-c4cnc([C@@H]5CCCN5C(=O)[C@H](NC(=O)OC)c5ccccc5)[nH]4)cc3)CC2)c[nH]1)c1ccccc1 (stereo partly drawn) [Example 1-b],< 1
2,COC(=O)N[C@@H](C(=O)N1CCC[C@H]1c1ncc(C#Cc2ccc(-c3cnc([C@@H]4CCCN4C(=O)[C@H](NC(=O)OC)c4ccccc4)[nH]3)cc2)[nH]1)c1ccccc1 [Example 299],< 1
3,COC(=O)N[C@@H](C(=O)N1CCC[C@H]1c1ncc(CCc2ccc(-c3cnc([C@@H]4CCCN4C(=O)[C@H](NC(=O)OC)c4ccccc4)[nH]3)cc2)[nH]1)c1ccccc1 [Example 361],< 1
